For this assay, the system named is CD2F1 mice, L1210 leukemia ip, survival T/C. Briefly: NCI In Vivo Anticancer Drug Screen. Data for tumor model L1210 Leukemia (intraperitoneal) in CD2F1 (CDF1) mice. Conditions: endpoint: mean survival time, higher = longer survival. In a few lines: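 Tumor-bearing mice (transplanted tumor) were split into treated and vehicle control groups, and the measured endpoint of each treated group was divided by that of its vehicle controls.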

[1] abbreviates: dose: 25.0 mg/kg/injection, schedule: Q04DX003 (ip), vehicle: saline with Tween-80.
The mark [2] stands for this setting: dose: 100.0 mg/kg/injection, schedule: Q04DX003 (ip), vehicle: saline with Tween-80.
Setting [3] is: dose: 200.0 mg/kg/injection, schedule: Q04DX003 (ip), vehicle: saline with Tween-80.
Where [4] appears, read: dose: 400.0 mg/kg/injection, schedule: Q04DX003 (ip), vehicle: saline with Tween-80.
Where [5] appears, read: dose: 25.0 mg/kg/injection, schedule: Q01DX009 (ip), vehicle: saline with Tween-80.
Where [6] appears, read: dose: 50.0 mg/kg/injection, schedule: Q01DX009 (ip), vehicle: saline with Tween-80.
[7] abbreviates: dose: 100.0 mg/kg/injection, schedule: Q01DX009 (ip), vehicle: saline with Tween-80.
The mark [8] stands for this setting: dose: 100.0 mg/kg/injection, schedule: Q01DX001 (ip), vehicle: saline with Tween-80.

Where “and” joins values, the source holds several entries; their conditions need not be identical. Equal values may be shown once. Toxic doses and inconclusive results are not listed. Non-standard residues stand in square brackets, D forms with d. Residues, ends and D or L forms follow the SMILES beside them. ξ: configuration not given here. *: point of attachment. ξF = NC(Cc1ccccc1)C(=O)O; ClAc = O=C(CCl)*

On to `CCOP(=S)(OCC)S/C(C(=O)NC)=C(/C)O`, for which the T/C runs as follows: (dose: 100.0 mg/kg/injection, schedule: Q04DX003 (sc), vehicle: Klucel + Tween-80) 96 % of control; (dose: 200.0 mg/kg/injection, schedule: Q04DX003 (sc), vehicle: Klucel + Tween-80) 100 % of control; (dose: 400.0 mg/kg/injection, schedule: Q04DX003 (sc), vehicle: Klucel + Tween-80) 115 % of control; (dose: 600.0 mg/kg/injection, schedule: Q04DX003 (sc), vehicle: Klucel + Tween-80) 96 % of control.
Take `CC[C@H]1CN2CCc3cc(OC)c(OC)cc3[C@@H]2C[C@@H]1C[C@H]1NCCc2cc(OC)c(OC)cc21`: the T/C reads like this: (dose: 2.0 mg/kg/injection, schedule: Q01DX007 (ip), vehicle: Klucel (hydroxypropylcellulose) (HPC)) 107 % of control; (dose: 2.0 mg/kg/injection, schedule: Q01DX009 (ip), vehicle: Klucel (hydroxypropylcellulose) (HPC)) 108 % of control; (dose: 2.0 mg/kg/injection, schedule: Q02DX005 (ip), vehicle: saline) 93 % of control and 102 % of control; (dose: 2.0 mg/kg/injection, schedule: Q03DX003 (ip), vehicle: Klucel (hydroxypropylcellulose) (HPC)) 110 % of control; (dose: 2.0 mg/kg/injection, schedule: Q04DX003 (ip), vehicle: Klucel (hydroxypropylcellulose) (HPC)) 104 % of control; (dose: 4.0 mg/kg/injection, schedule: Q01DX007 (ip), vehicle: Klucel (hydroxypropylcellulose) (HPC)) 118 % of control. The T/C (dose: 4.0 mg/kg/injection, schedule: Q01DX009 (ip), vehicle: Klucel (hydroxypropylcellulose) (HPC)) was 122 % of control; the T/C (dose: 4.0 mg/kg/injection, schedule: Q02DX005 (ip), vehicle: saline) was 104 % of control; the T/C (dose: 4.0 mg/kg/injection, schedule: Q03DX003 (ip), vehicle: Klucel (hydroxypropylcellulose) (HPC)) is 106 % of control; the T/C (dose: 4.0 mg/kg/injection, schedule: Q04DX003 (ip), vehicle: Klucel (hydroxypropylcellulose) (HPC)) is 104 % of control; the T/C (dose: 8.0 mg/kg/injection, schedule: Q01DX007 (ip), vehicle: Klucel (hydroxypropylcellulose) (HPC)) was 105 % of control; the T/C (dose: 8.0 mg/kg/injection, schedule: Q01DX009 (ip), vehicle: Klucel (hydroxypropylcellulose) (HPC)) was 101 % of control. Also, the T/C (dose: 8.0 mg/kg/injection, schedule: Q03DX003 (ip), vehicle: Klucel (hydroxypropylcellulose) (HPC)) is 110 % of control; the T/C (dose: 8.0 mg/kg/injection, schedule: Q04DX003 (ip), vehicle: Klucel (hydroxypropylcellulose) (HPC)) is 110 % of control; the T/C under setting [1] was 164 % of control and 195 % of control; the T/C (dose: 30.0 mg/kg/injection, schedule: Q04DX003 (ip), vehicle: saline with Tween-80) was 124 % of control; the T/C (dose: 40.0 mg/kg/injection, schedule: Q04DX003 (ip), vehicle: saline with Tween-80) is 95 % of control.
Consider `Cc1ccc(/C=C2\CC(C)(C)c3ccccc3C2=O)cc1`, for which the T/C runs as follows: (dose: 100.0 mg/kg/injection, schedule: Q01DX009 (ip), vehicle: saline) 96 % of control; (dose: 100.0 mg/kg/injection, schedule: Q04DX003 (ip), vehicle: other) 104 % of control; (dose: 200.0 mg/kg/injection, schedule: Q01DX009 (ip), vehicle: saline) 94 % of control; (dose: 200.0 mg/kg/injection, schedule: Q04DX003 (ip), vehicle: other) 100 % of control; (dose: 400.0 mg/kg/injection, schedule: Q01DX009 (ip), vehicle: saline) 94 % of control; (dose: 400.0 mg/kg/injection, schedule: Q04DX003 (ip), vehicle: other) 105 % of control.
As to `FC1(F)C(Cl)=[C]([Hg][C]2=C(Cl)C(F)(F)C(F)(F)C(F)(F)C2(F)F)C(F)(F)C(F)(F)C1(F)F`, the T/C by setting is: (dose: 37.5 mg/kg/injection, schedule: Q04DX003 (ip), vehicle: saline) 104 % of control; (dose: 75.0 mg/kg/injection, schedule: Q01DX001 (ip), vehicle: saline) 106 % of control; (dose: 75.0 mg/kg/injection, schedule: Q04DX003 (ip), vehicle: saline) 97 % of control; (dose: 150.0 mg/kg/injection, schedule: Q01DX001 (ip), vehicle: saline) 95 % of control.
As to `O=C(CCl)NCC(=O)NC(Cc1ccccc1)C(=O)O` (stereo not drawn) (ClAc-Gly-[ξF]-OH), the T/C runs as follows: under setting [2], 98 % of control; under setting [3], 96 % of control; under setting [4], 96 % of control.
`O=C(NCC(S)c1ccc(Cl)cc1)C(F)(F)F` (stereo not drawn): the T/C by setting is: (dose: 12.5 mg/kg/injection, schedule: Q04DX003 (ip), vehicle: saline with Tween-80) 96 % of control; under setting [1], 90 % of control; (dose: 50.0 mg/kg/injection, schedule: Q04DX003 (ip), vehicle: saline with Tween-80) 96 % of control.
With `CN1CCN(C(=S)S)CC1`, the T/C is, setting by setting: (dose: 12.5 mg/kg/injection, schedule: Q01DX009 (ip), vehicle: saline with Tween-80) 100 % of control; under setting [5], 95 % of control; under setting [6], 100 % of control.
In the case of `CC(=O)Nc1ncc2ccccc2c1-c1ccc(N(CCCl)CCCl)cc1`, the T/C is 105 % of control (dose: 25.0 mg/kg/injection, schedule: Q04DX003 (ip), vehicle: DMSO); 94 % of control (dose: 50.0 mg/kg/injection, schedule: Q04DX003 (ip), vehicle: DMSO); 95 % of control (dose: 50.0 mg/kg/injection, schedule: Q04DX003 (ip), vehicle: Klucel (hydroxypropylcellulose) (HPC)); 111 % of control (dose: 100.0 mg/kg/injection, schedule: Q04DX003 (ip), vehicle: DMSO); 104 % of control (dose: 100.0 mg/kg/injection, schedule: Q04DX003 (ip), vehicle: Klucel (hydroxypropylcellulose) (HPC)); 92 % of control (dose: 100.0 mg/kg/injection, schedule: Q04DX003 (ip), vehicle: saline + alcohol). The T/C by setting is: (dose: 200.0 mg/kg/injection, schedule: Q04DX003 (ip), vehicle: Klucel (hydroxypropylcellulose) (HPC)) 101 % of control; (dose: 200.0 mg/kg/injection, schedule: Q04DX003 (ip), vehicle: saline + alcohol) 101 % of control; (dose: 400.0 mg/kg/injection, schedule: Q04DX003 (ip), vehicle: DMSO) 150 % of control; (dose: 400.0 mg/kg/injection, schedule: Q04DX003 (ip), vehicle: Klucel (hydroxypropylcellulose) (HPC)) 104 % of control; (dose: 400.0 mg/kg/injection, schedule: Q04DX003 (ip), vehicle: saline + alcohol) 97 % of control.
On to `CCOc1ccc(-c2nnc(Nc3ccc(S(=O)(=O)N4CCCCC4)cc3)s2)cc1`, for which the T/C is, setting by setting: under setting [5], 95 % of control; under setting [6], 90 % of control; under setting [7], 86 % of control.
`CC1(C)CN(c2ccccc2)N(CN2CCOCC2)C1=O`: for the setting “dose: 12.5 mg/kg/injection, schedule: Q01DX009 (ip), vehicle: Klucel (hydroxypropylcellulose) (HPC)”, the T/C is 89 % of control.
Consider `CC1(C)N=C(N)N=C(N)N1c1ccc(OCCCCNC(=O)Nc2cccc(S(=O)(=O)F)c2)c(Cl)c1`, for which the T/C (dose: 25.0 mg/kg/injection, schedule: Q01DX001 (ip), vehicle: saline with Tween-80) is 105 % of control; the T/C (dose: 50.0 mg/kg/injection, schedule: Q01DX001 (ip), vehicle: saline with Tween-80) was 103 % of control; the T/C under setting [8] was 95 % of control and 97 % of control.
On to `COC1OC(COS(=O)(=O)c2ccc(C)cc2)C(O)C(O)C1O` (stereo not drawn), for which the T/C was 100 % of control under setting [8]; 96 % of control under setting [7]; 95 % of control (dose: 200.0 mg/kg/injection, schedule: Q01DX001 (ip), vehicle: saline with Tween-80); 91 % of control (dose: 200.0 mg/kg/injection, schedule: Q01DX009 (ip), vehicle: saline with Tween-80); 94 % of control (dose: 400.0 mg/kg/injection, schedule: Q01DX001 (ip), vehicle: saline with Tween-80); 94 % of control (dose: 400.0 mg/kg/injection, schedule: Q01DX009 (ip), vehicle: saline with Tween-80).
As to `CCCCCCCCCCCCNC(=O)c1cc[n+](Cc2ccc(Cl)c(Cl)c2)cc1`, the T/C is, setting by setting: under setting [2], 103 % of control; under setting [3], 96 % of control; under setting [4], 94 % of control.
The matching figures for `Cc1ccc(C(O)c2c(C)cc(C)cc2C)c(C)c1` (stereo not drawn): 94 % of control, 89 % of control and 88 % of control.
In the case of `Cc1ccc(S(=O)(=O)Nc2ccccc2SSc2ccccc2NS(=O)(=O)c2ccc(C)cc2)cc1`, the T/C by setting is: (dose: 100.0 mg/kg/injection, schedule: Q01DX001 (ip), vehicle: Klucel (hydroxypropylcellulose) (HPC)) 96 % of control; (dose: 200.0 mg/kg/injection, schedule: Q01DX001 (ip), vehicle: Klucel (hydroxypropylcellulose) (HPC)) 96 % of control; (dose: 400.0 mg/kg/injection, schedule: Q01DX001 (ip), vehicle: Klucel (hydroxypropylcellulose) (HPC)) 90 % of control.

These data come from PubChem BioAssay AID256 (DTP/NCI, 2004).
